In patent EP0103381B1, “Substituted anthra(1,9-cd)pyrazol-6(2H)-ones” (WARNER-LAMBERT COMPANY, priority 1982, dated 1984):
Read-outs that look alike come from different tables or passages of the source.

Assays:
Penicillium avellaneum = assay: agar plate paper-disc inhibition zone screening; format: cell-based; details: Hamigera avellanea, read-out: Inhibition Zone Diameter mm (Dose mg/ml) P. Avellaneum
Description: The Penicillium avellaneum is grown for six days, at 28°C, on an agar medium. This is to allow sporulation of the culture. The organism is then harvested by scraping off the cells from the agar surface (mycelia and spores) and suspending them in saline solution containing 0.05% Tween 80.
The suspension is adjusted to a light transmittancy of 20%. One ml of this suspension is used to inoculate 100 ml of the molten-agar assay medium.
(§1) Stainless steel frames, 12.3 x 25.3 cm (ID) and glass plates, 15.3 x 31.7 cm are used to make the test trays. The frames are attached to the plates with tape at each end and the inner edges sealed with 2% agar. Twenty five ml of inoculated assay medium is spread evenly on each tray and allowed to solidify. The trays are covered, inverted, and refrigerated until used.
(§2) The compounds or samples to be tested are dissolved in suitable solvents, e.g., alcohols, dimethylsulfoxide, or N,N-dimethylformamide. The samples are generally dissolved so that the final concentration of the solvent is <10%.^* The compounds are tested at different concentrations: 3,000; 1,000; 500; 100; and 10 mcg/ml. Paper discs (12.7 mm diameter) are placed on the agar trays with forceps, then 0.08 ml of the dissolved compound is pipetted onto each disc using a 0.2 ml pipette.
(§3) The disked agar trays are incubated overnight (18-20 hours) at 37°C for the bacterial cultures and 28°C for the yeasts. The Penicillium avellaneium tray is incubated for at least […] since it is a slower- growing organism.
(§4) Active compounds show a zone of inhibition around the disc. The diameter of the zone is measured in mm. The zone diameter of active compounds ranges from a minimum of 13.5 mm to as high as 60 mm. The size of the zone diameter generally reflects the activity of the compound: the larger the zone the greater the activity.

Streptococcus faecalis = assay: agar plate paper-disc inhibition zone screening; format: cell-based; details: Enterococcus faecalis, read-out: Inhibition Zone Diameter mm (Dose mg/ml) S. Faecalis
Description: (§5) The bacterial and yeast isolates are maintained in agar slants or in liquid media, hereby designated as inoculum media. The cultures are transferred at regular intervals in such media. (See Table for the corresponding inoculum media of each culture.) The organisms are generally transferred on to agar slants or liquid inoculum media and incubated overnight (18-20 hours): 37°C for the bacterial isolates and 28°C for the fungal cultures.
(§6) The microbial cells from the overnight agar slants are then scraped off and suspended in saline solution (0.85% NaCI). The microbial concentrations are adjusted to a light transmittancy of 20-35%, Junior Coleman Spectrophotometer (555 M). For the organisms that are maintained in liquid media, an aliquot of the culture suspension is simply diluted with saline to 20-35% light transmittancy.
(§7) The above microbial suspension serve as inocula for the assay plates. Thus, 0.16-10 ml (see Table for exact amount) are used to inoculate 100 ml of the molten-agar assay medium.
as §1, §2, §3, §4

Bacillus subtilis = assay: agar plate paper-disc inhibition zone screening; format: cell-based; details: read-out: Inhibition Zone Diameter mm (Dose mg/ml) B. Subtilis
Description: as §5, §6, §7, §1, §2, §3, §4

[1] = test system: lymphocytic leukemia P388; assay: in vivo lymphocytic leukemia P388 test; design: species or system mice; details: Mus musculus, P388, ip, 720 h, two single doses four days apart, read-out: T/C × 100 (Percent); for response vs control in vivo at 12.5 mg/kg: P388, Dose 12.5 mg/kg intraperitoneally; for response vs control in vivo at 25 mg/kg: P388, Dose 25 mg/kg intraperitoneally; for response vs control in vivo at 6.25 mg/kg: P388, Dose 6.25 mg/kg intraperitoneally; for response vs control in vivo at 50 mg/kg: P388, Dose 50 mg/kg intraperitoneally; for response vs control in vivo at 100 mg/kg: P388, Dose 100 mg/kg intraperitoneally; for response vs control in vivo at 1.56 mg/kg: P388, Dose 1.56 mg/kg intraperitoneally; for response vs control in vivo at 3.12 mg/kg: P388, Dose 3.12 mg/kg intraperitoneally
Description: The in vivo lymphocytic leukemia P388 test is carried out by the United States National Cancer Institute. The animals used are either male or female CD2F, mice. There are six to seven animals per test group. The tumor transplant is by intraperitoneal injection of dilute ascitic fluid containing cells of lymphocytic leukemia P388. The test compounds are administered intraperitoneally in two single doses with a four-day interval between doses at various dose levels following tumor inoculation. The animals are weighed and survivors are recorded on a regular basis for 30 days. A ratio of survival time for treated (T)/ control (C) animals is calculated. The criterion for efficacy is T/C x 100 > 125%. The positive control compound in this test is 1,4-dihydroxy-5,8-[bis[[2-[(2-hydroxyethyl)amino]-ethyl]amino]-9,10-anthracene- dione given at dosages ranging from 12.0 to 0.075 mg/kg. See Cancer Chemotherapy Reports, Part 3, 3, 1 (1972) for a comprehensive discussion of the protocol.

O=C1c2c(O)cccc2-c2nn(CCNCCO)c3ccc(NCCNCCO)c1c23 [Example 83]
zone of inhibition at 3000 µg/mL (Penicillium avellaneum): 0 mm
zone of inhibition at 3000 µg/mL (Streptococcus faecalis): 0 mm
zone of inhibition at 3000 µg/mL (Bacillus subtilis): 14 mm

O=C1c2c(O)ccc(O)c2-c2nn(CCNCCO)c3ccc(NCCN(CCO)CCO)c1c23 [Example 67, 5-[[2-[Bis(2-hydroxyethyl)amino]ethyl]amino]-7,10-dihydroxy-2-[2-[(2-hydroxyethyl)-amino]ethyl]anthra(1,9-cd]pyrazol-6(2H)-one]
response vs control in vivo at 12.5 mg/kg [1]: 158%
response vs control in vivo at 25 mg/kg [1]: 187%

CNCCNc1ccc2c3c(nn2CCNCCO)-c2c(O)ccc(O)c2C(=O)c13 [Example 70, 7,10-Dihydroxy-2-[2-[(2-hydraxyethyl)amino]ethyl]-5-[[2-(methylamino)ethyl]amino]anthra[1,9-cd]pyrazol-6(2H)-one]
response vs control in vivo at 6.25 mg/kg [1]: 277%
response vs control in vivo at 12.5 mg/kg [1]: 277%

NCCCNc1ccc2c3c(nn2CCCNCCO)-c2c(O)ccc(O)c2C(=O)c13 [Example 53]
response vs control in vivo at 50 mg/kg [1]: 160%

O=C1c2c(O)ccc(O)c2-c2nn(CCCNCCO)c3ccc(NCCNCCO)c1c23 [Example 52, 7,10-Dihydroxy-5-[[2-[(2-hydroxyethyl)amino]ethyl]amino]-2-[3-((2-hydroxyethyi)amino]propyl]anthra[1,9-cd]pyrazol-6(2H)-one]
response vs control in vivo at 12.5 mg/kg [1]: 157%
response vs control in vivo at 25 mg/kg [1]: 183%
response vs control in vivo at 100 mg/kg [1]: 259%

O=C1c2c(O)ccc(O)c2-c2nn(CC(O)CO)c3ccc(NCCNCCO)c1c23 (centres unmarked) [Example 78, 2-(2,3-Dihydroxypropyl)-7,10-dihydroxy-5-[[2-[(2-hydroxyethyl)amino]ethyl]amino]anthra[1,9-cd]pyrazol-6(2H)-one]
response vs control in vivo at 25 mg/kg [1]: 184%
response vs control in vivo at 50 mg/kg [1]: 177%
response vs control in vivo at 100 mg/kg [1]: 208%
response vs control in vivo at 200 mg/kg ([1]; P388, Dose 200 mg/kg intraperitoneally): 218%

O=C1c2c(O)cc(O)c(O)c2-c2nn(CCNCCO)c3ccc(NCCNCCO)c1c23 [Example 86, 7,9,10-Trihydroxy-2-[2-[(2-hydroxyethyl)amino]ethyl]-5-[[2-[(2-hydroxyethyl)amino]lethyl]amino]-anthra[1,9-cd]pyrazol-6(2H)-one]
response vs control in vivo at 1.56 mg/kg [1]: 155%
response vs control in vivo at 3.12 mg/kg [1]: 165%

CN(CCO)CCn1nc2c3c(c(NCCNCCO)ccc31)C(=O)c1c(O)ccc(O)c1-2 [Example 51, 7,10-Dihydroxy-5-[[2-[(2-hydroxyethyl)amino]ethyl]amino]-2-[2-[(2-hydroxyethyl)-methylamino]ethyl]anthra[1,9-cd]pyrazol-6(2H)-one]
response vs control in vivo at 3.12 mg/kg [1]: 184%
response vs control in vivo at 6.25 mg/kg [1]: 182%
response vs control in vivo at 12.5 mg/kg [1]: 203%

CNCCNc1ccc2c3c(nn2CCNCCO)-c2cccc(O)c2C(=O)c13 [Example 84, 7-Hydroxy-2-[2-[(2-hydroxyethyl)amino]ethyl]-5-[[2-(methylamino)ethyl]amino]anthra[1,9-cd]pyrazol-6(2H)-one]
zone of inhibition at 3000 µg/mL (Penicillium avellaneum; Dose 3.0 mg/ml): 0 mm
zone of inhibition at 3000 µg/mL (Streptococcus faecalis; Dose 3.0 mg/ml): 14 mm
zone of inhibition at 3000 µg/mL (Bacillus subtilis; Dose 3.0 mg/ml): 15 mm

NCCn1nc2c3c(c(NCCCNCCO)ccc31)C(=O)c1c(O)ccc(O)c1-2 [Example 75, 2-(2-Aminoethyl)-5-[[3-[(2-hydroxyethyl)amino]propyl]amino]-7,10-dihydroxyanthra[1,9-cd]pyrazol-6(2H)-one]
zone of inhibition at 3000 µg/mL (Penicillium avellaneum; Dose 3.0 mg/ml): 0 mm
response vs control in vivo at 1.56 mg/kg [1]: 181%
response vs control in vivo at 3.12 mg/kg [1]: 177%
response vs control in vivo at 6.25 mg/kg [1]: 184%
zone of inhibition at 3000 µg/mL (Streptococcus faecalis; Dose 3.0 mg/ml): 0 mm
zone of inhibition at 500 µg/mL (Bacillus subtilis; Dose 0.5 mg/ml): 14 mm

CSCCn1nc2c3c(c(NCCNCCO)ccc31)C(=O)c1c(O)ccc(O)c1-2 [Example 48]
response vs control in vivo at 6.25 mg/kg [1]: 140%
response vs control in vivo at 12.5 mg/kg [1]: 132%

O=C1c2c(O)ccc(O)c2-c2nn(CCNCCO)c3ccc(NCCCN(CCO)CCO)c1c23 [Example 68]
response vs control in vivo at 25 mg/kg [1]: 163%
response vs control in vivo at 50 mg/kg [1]: 167%
response vs control in vivo at 100 mg/kg [1]: 192%

CN(C)CCNCCn1nc2c3c(c(NCCNCCO)ccc31)C(=O)c1c(O)ccc(O)c1-2 [Example 50, 2-[2-[[2-(Dimethylamino)ethyl]amino]ethyl]-5-[[2-[(2-hydroxyethyl)amino]ethyl]amino]-7,10-dihydroxyanthra[1,9-cd]pyrazol-6(2H)-one]
response vs control in vivo at 3.12 mg/kg [1]: 207%
response vs control in vivo at 6.25 mg/kg [1]: 188%
response vs control in vivo at 50 mg/kg [1]: 226%

O=C1c2c(O)c(O)cc(O)c2-c2nn(CCNCCO)c3ccc(NCCNCCO)c1c23 [Example 87, 7,8,10-Trihydroxy-2-[2-[(2-hydroxyethyl)amino]ethyl]-5-[[2-[(2-hydroxyethyl)amino]ethyl]amino]-anthra[1,9-cd]pyrazol-6(2H)-one]
response vs control in vivo at 12.5 mg/kg [1]: 257%
response vs control in vivo at 25 mg/kg [1]: 265%

NCCCNCCCCNCCCNc1ccc2c3c(nn2CCNCCO)-c2c(O)ccc(O)c2C(=O)c13 [Example 69, 5-[(3-[[4-[(3-Aminopropyl)amino]butyl]amino]propyl]amino]-7,10-dihydroxy-2-[2-[(2-hydroxyethyl)-amino]ethyl]anthra(1,9-cd]pyrazol-6(2H)-one]
response vs control in vivo at 6.25 mg/kg [1]: 127%

O=C1c2cccc(O)c2-c2nn(CCNCCO)c3ccc(NCCNCCO)c1c23 [Example 85, 10-Hydroxy-2-(2-[(2-hydroxyethyl)amino]ethyl]-5-[[2-[(2-hydroxyethyl)amino]ethyl]amino]anthra[1,9-cd] pyrazol-6(2H)-one]
zone of inhibition at 3000 µg/mL (Penicillium avellaneum; Dose 3.0 mg/ml): 0 mm
response vs control in vivo at 25 mg/kg [1]: 163%
response vs control in vivo at 50 mg/kg [1]: 172%
zone of inhibition at 3000 µg/mL (Streptococcus faecalis; Dose 3.0 mg/ml): 0 mm
zone of inhibition at 3000 µg/mL (Bacillus subtilis; Dose 3.0 mg/ml): 14 mm

CN(C)CCNCCNc1ccc2c3c(nn2CCCN)-c2c(O)ccc(O)c2C(=O)c13 [Example 91]
zone of inhibition at 3000 µg/mL (Penicillium avellaneum; Dose 3.0 mg/ml): 0 mm
zone of inhibition at 3000 µg/mL (Streptococcus faecalis; Dose 3.0 mg/ml): 0 mm
zone of inhibition at 3000 µg/mL (Bacillus subtilis; Dose 3.0 mg/ml): 15 mm

NCCNCCNc1ccc2c3c(nn2CCNCCO)-c2c(O)ccc(O)c2C(=O)c13 [Example 66, 5-[[2-[(2-Aminoethyl)amino]ethyl]amino]-7,10-dihydroxy-2-[2-[(2-hydroxyethyl)amino]ethyl]anthra[1,9-cd]pyrazol-6(2H)-one]
response vs control in vivo at 12.5 mg/kg [1]: 233%
response vs control in vivo at 25 mg/kg [1]: 221%
